Assays:
Details in all cases: synthetic library passage 3, intravenous, relative to wild-type AAV9
[1] = test system: brain; assay: NGS fold enrichment of synthetic library (passage 3) in C57Bl/6 mice, first cross-species screen; format: in vivo
Outline: (§1)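 Synthetic capsid library (passage 3) was given intravenously […] to NHPs aged 2-4 years and to BALB/c and C57Bl/6 mice (n=3 each, 6-8 weeks). After about 28 days in vivo, tissue RNA was RT-PCR amplified and NGS-sequenced; values are fold enrichment per variant relative to wild-type AAV9.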

[2] = test system: brain, spinal cord, and DRG of the NHPs; assay: NGS fold enrichment of synthetic library (passage 3) in NHPs, first cross-species screen; format: in vivo, cynomolgus macaques (Macaca fascicularis)
Outline: as §1

[3] = test system: brain; assay: NGS fold enrichment of synthetic library (passage 3) in BALB/c mice, first cross-species screen; format: in vivo
Outline: as §1

[4] = RNA from brain of C57Bl/6 mice, NGS
[5] = RNA from spinal cord of NHPs, NGS
[6] = RNA from brain of BALB/c mice, NGS

Sequence | Fold enrichment over AAV9 in the brain of Mice (C57Bl/6) ([1]; RNA NGS, brain of C57Bl/6 mice) [fold] | Fold enrichment over AAV9 in the brain of NHPs ([2]; RNA NGS, brain of NHPs) [fold] | Fold enrichment over AAV9 in the spinal cord of NHPs ([2]; RNA NGS, spinal cord of NHPs) [fold] | Fold enrichment over AAV9 in the brain of Mice (BALB/c) ([3]; RNA NGS, brain of BALB/c mice) [fold] | Fold enrichment over AAV9 in the brain of Mice (C57Bl/6) [1, 4] [fold] | Fold enrichment over AAV9 in the brain of NHPs ([2]; RNA from brain of NHPs, NGS) [fold] | Fold enrichment over AAV9 in the spinal cord of NHPs [2, 5] [fold] | Fold enrichment over AAV9 in the brain of Mice (BALB/c) [3, 6] [fold]
GSGQLSGIGGNQQT | 0.993 | 3.266 | 0.287 | 0.626 | – | – | – | –
GSGQSTLKRINQQT | – | – | – | – | 0.534 | 1.168 | 13.442 | 1.184
GSGGLDTRGQNQQT | 0.236 | 2.139 | 6.216 | 0.197 | – | – | – | –
GSGVMTHVLQNQQT | 0.370 | 2.692 | 0.347 | 0.533 | – | – | – | –
GSGQNQAVHNKSQT | 1.465 | 1.956 | 3.791 | 1.083 | – | – | – | –
GSGQNAYSSQAQQT | – | – | – | – | 0.629 | 1.201 | 12.096 | 0.216
GSGQVVGLSGNQQT | 0.785 | 2.052 | 7.212 | 0.881 | – | – | – | –
GIPSIRESGQNQQT | – | – | – | – | 0.484 | 1.282 | 0.166 | 0.254
GSGQNQQVIPNSKT | 0.844 | 1.548 | 1.036 | 0.376 | – | – | – | –
GPRLSDQSGQNQQT | 0.640 | 1.511 | 0.364 | 0.579 | – | – | – | –
GSGQNQQPSSRVTT | 0.784 | 1.012 | 2.179 | 0.504 | – | – | – | –
GSGQNQSHYPSQQT | – | – | – | – | 0.644 | 1.228 | 4.315 | 0.402
GSIAHVGTGQNQQT | 0.837 | 1.696 | 1.264 | 1.045 | – | – | – | –
GYTRLETSGQNQQT | – | – | – | – | 0.841 | 1.250 | 1.323 | 0.297
GLGSKNHSGQNQQT | – | – | – | – | 0.825 | 1.187 | 5.046 | 0.224
GRVLHSHAGQNQQT | 1.294 | 2.513 | 0.826 | 0.908 | – | – | – | –

Sequence | Fold enrichment over AAV9 in the brain of Mice (C57Bl/6) ([1]; RNA NGS, brain of C57Bl/6 mice) [fold] | Fold enrichment over AAV9 in the brain of NHPs ([2]; RNA NGS, brain of NHPs) [fold] | Fold enrichment over AAV9 in the spinal cord of NHPs ([2]; RNA NGS, spinal cord of NHPs) [fold] | Fold enrichment over AAV9 in the brain of Mice (BALB/c) ([3]; RNA NGS, brain of BALB/c mice) [fold] | Fold enrichment over AAV9 in the brain of Mice (C57Bl/6) [1, 4] [fold] | Fold enrichment over AAV9 in the brain of NHPs ([2]; RNA from brain of NHPs, NGS) [fold] | Fold enrichment over AAV9 in the spinal cord of NHPs [2, 5] [fold] | Fold enrichment over AAV9 in the brain of Mice (BALB/c) [3, 6] [fold]
GSGQNRGISISQQT | 0.686 | 1.057 | 2.166 | 0.566 | – | – | – | –
GSGQNQQTMPQHKI | 0.479 | 1.097 | 2.394 | 0.197 | – | – | – | –
GSGQNQQTVPTRQT | 0.629 | 1.040 | 1.207 | 0.138 | – | – | – | –
GNGHSMRPNQNQQT | 0.693 | 1.560 | 2.341 | 0.376 | – | – | – | –
GSGNPVSHLQNQQT | 0.583 | 1.121 | 1.037 | 0.310 | – | – | – | –
GRAVMDHSGQNQQT | 0.728 | 2.408 | 3.209 | 0.283 | – | – | – | –
GSGQSHSLETNQQT | – | – | – | – | 0.520 | 1.188 | 1.319 | 0.363
GGRNGHTVGQNQQT | 1.105 | 2.965 | 3.732 | 1.003 | – | – | – | –
GSLVSVQTGQNQQT | 0.903 | 3.534 | 6.043 | 0.469 | – | – | – | –
GSGMIHTTAQNQQT | – | – | – | – | 0.678 | 1.285 | 0.105 | 0.276
GSGQNQHYSLHKQT | 1.485 | 1.563 | 3.399 | 1.273 | – | – | – | –
GSGMPASRLQNQQT | 0.790 | 1.117 | 1.689 | 0.372 | – | – | – | –
GSRMTQQFGQNQQT | 1.233 | 1.720 | 25.798 | 0.976 | – | – | – | –
GSGQMQPHVQNQQT | – | – | – | – | 0.387 | 1.389 | 9.381 | 0.153
GWERSFVSGQNQQT | 0.490 | 1.492 | 0.943 | 0.538 | – | – | – | –
GSGASESHRQNQQT | – | – | – | – | 0.325 | 1.350 | 0.850 | 0.313

From patent US20260250318A1, “COMPOSITIONS AND METHODS FOR CROSSING THE BLOOD BRAIN BARRIER” (VOYAGER THERAPEUTICS, INC., priority 2022, published 2026)
